US7713994B2 (Wyeth LLC, priority 2005, dated 2010)
Each block holds one molecule with its values, some of them ahead of it.

How the values were obtained:
IGF1-receptor kinase = molecular target: T1, IGF1-receptor kinase (Homo sapiens, UniProt P08069); assay: IGF1-R kinase assay (96-well FRET Lance); type: biochemical; conditions: for IC50: 100 micromolar ATP, read-out: Igfr ic50; for inhibition at 10 µM: read-out: Igfr % Inhibition at 10 uM
T1 construct: Purified GST-IGFR; purified Bis-IGFR and Tris-IGFR; fused on or other part: GST with a thrombin cleavage site, removed in the Bis-IGFR and Tris-IGFR forms
Text: • TITLE: 96-well assay for inhibitors of IGF1-receptor kinase activity • SHORT TITLE: IGF1-R kinase assay • PURPOSE: Identify inhibitors of IGF-1 receptor kinase activity • MATERIALS AND METHODS: Overview: This is a 96-well FRET (Lance) tyrosine kinase assay. • Materials: • Purified GST-IGFR; purified Bis-IGFR and Tris-IGFR; expressed in ExpresSF insect cells. Bis and Tris IGFR are made by phosphorylating the IGFR in the presence of ATP and Mg2+, followed by thrombin cleavage to remove the GST-thrombin cleavage site, and purification by HPLC. The Bis and tris IGFR are phosphorylated on two (bis) or all three tyrosines (tris) in the activation loop. • Biotinylated peptide with a sequence corresponding to the sequence surrounding the autophosphorylation sites in IGF1-R Biotin-NH2-[…]-OH (Anaspec) • Europium-conjugated phosphotyrosine antibody (PT66) (Perkin-Elmer). • Surelight APC (Perkin-elmer) • Plates: 96-well Assay plates (polypropylene plates, natural color) • 96-well-Lance plates (Microfluor 2 black plates; Cat # 7205; Thermolabsystems. • ATP: (Amersham Pharmacia Cat # 27-2056-01), 100 mM stock. • IGFR Lance Protocol (96-well format) • Procedure: • Reagents: • Kinase Buffer (10×): • 0.5 M Hepes, pH 7.5 rt • 0.1 M MgCl2 • Quench Buffer (to be added straight, 1:1, to r×n mix): • 50 mM Hepes, pH 7.5 rt • 50 mM EDTA • Lance Detection Buffer: • 20 mM Tris-HCl, pH 7.5 rt • 0.15 M NaCl-150 • 150 ug/ml BSA (Sigma Cat# A-7284) • Eu-labeled phosphotyrosine antibody PT66 (Perkin-Elmer): 1:4000 dilution of 200 μg/ml stock • Streptavidin-APC (Perkin Elmer): 1/250 (4 microgram/ml final) • ATP (Amersham Pharmacia cat #27-2056-01) 100 mM stock: Dilute to 1 mM (10×) in water. […] Transfer 12.5[…] of the kinase reaction to the antibody detection plate. Allow antibody to react for 1 h at rt in the dark. Then read in Victor with an excitation filter of 340 nm and an emission filter of 665 nm. • Compound additions: • When Example compounds are tested, they are added from a 10% DMSO/50 mM Hepes (pH 7.5) 10× stock. 5 microliters of compound in this buffer are added to the enzyme-peptide-buffer mix. After 10′ incubation at room temperature, ATP is added to start the reaction. A no ATP background control is included in the assay. • […] OF RESULTS: Data are analyzed as follows: % Inhibition={[Sample cpm−Bkg cpm]/[No cmpd cpm−Bkg cpm]}×100%. The biological activity of representative Examples of the invention is reported in Table VII as: 0.2 µM≦x≦10 µM or % inhibition@10 µM.

cyclin D1/cdk 4 enzyme = molecular target: T2, cyclin D1/cdk 4 enzyme (Homo sapiens, UniProt P11802); assay: CDK4 ELISA kinase assay (phospho-Rb ser 795 detection); type: biochemical; conditions: In Vitro Enzyme Assays, 200 μM ATP, read-out: CDK4 IC50
T2 construct: made in house; host or cells: Sf9 insect cells, recombinant baculovirus
In short: (§1)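 Sf9-derived cyclin/CDK, 200 μM ATP, immobilized GST-Rb; 30° C/1 h. Detection: phospho-Ser795 Ab, HRP, TMB, OD450.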

MCF-7 = assay: Cytotoxicity assay (SRB), MCF-7; type: cell-based; conditions: Homo sapiens, MCF7, 72 h, MCF-7 cells, SRB, three days; read-out: In Vitro Cellular Activity IC50 MCF-7
In short: (§2)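 Growth inhibition, SRB method: 3-day continuous compound exposure for HCT-116, LoVo and MCF-7 and 6-day exposure for BT474. Absorbance at 540 nm reflects surviving cell protein relative to controls.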

cyclin E/CDK2 enzyme = molecular target: T3, cyclin E/CDK2 enzyme (Homo sapiens, UniProt P24941); assay: CDK2 ELISA kinase assay (phospho-Rb ser 795 detection); type: biochemical; conditions: In Vitro Enzyme Assays, read-out: CDK2 IC50
T3 construct: made in house; host or cells: Sf9 insect cells, recombinant baculovirus
In short: as §1

cyclin B/CDK1 enzyme = molecular target: T4, cyclin B/CDK1 enzyme (Homo sapiens, UniProt P06493); assay: CDK1 ELISA kinase assay (phospho-Rb ser 795 detection); type: biochemical; conditions: In Vitro Enzyme Assays, read-out: CDK1 IC50
T4 construct: purchased New England BioLabs; host or cells: Sf9 insect cells, recombinant baculovirus
In short: as §1

HCT-116 = assay: Cytotoxicity assay (SRB), HCT-116; type: cell-based; conditions: Homo sapiens, HCT-116, 72 h, HCT116 cells, SRB, three days; read-out: In Vitro Cellular Activity IC50 HCT116
In short: as §2

BT474 = assay: Cytotoxicity assay (SRB), BT474; type: cell-based; conditions: Homo sapiens, BT-474, 144 h, BT474 cells, SRB, 6 days; read-out: In Vitro Cellular Activity IC50 BT474
In short: as §2

SK-UT-1B = assay: In Vitro Cellular Activity (Table III), SK-UT-1B; type: cell-based; conditions: Homo sapiens, Skut1B; SK-UT-1B cells
LoVo = assay: Cytotoxicity assay (SRB), LoVo; type: cell-based; conditions: Homo sapiens, LoVo, 72 h, LoVo cells, SRB, three days; read-out: In Vitro Cellular Activity IC50 LOVO
In short: as §2

T2 sequence (P11802 whole entry, species assumed): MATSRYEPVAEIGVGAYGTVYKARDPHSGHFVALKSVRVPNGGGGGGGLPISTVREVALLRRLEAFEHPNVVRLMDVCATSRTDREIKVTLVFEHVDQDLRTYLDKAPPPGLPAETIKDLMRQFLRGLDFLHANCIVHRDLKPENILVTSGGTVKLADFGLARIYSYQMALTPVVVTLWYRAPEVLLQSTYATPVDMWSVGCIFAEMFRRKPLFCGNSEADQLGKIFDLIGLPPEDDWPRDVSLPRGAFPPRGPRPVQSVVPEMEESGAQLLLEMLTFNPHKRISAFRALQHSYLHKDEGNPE
T2 sequence (P24385 whole entry partner, species assumed): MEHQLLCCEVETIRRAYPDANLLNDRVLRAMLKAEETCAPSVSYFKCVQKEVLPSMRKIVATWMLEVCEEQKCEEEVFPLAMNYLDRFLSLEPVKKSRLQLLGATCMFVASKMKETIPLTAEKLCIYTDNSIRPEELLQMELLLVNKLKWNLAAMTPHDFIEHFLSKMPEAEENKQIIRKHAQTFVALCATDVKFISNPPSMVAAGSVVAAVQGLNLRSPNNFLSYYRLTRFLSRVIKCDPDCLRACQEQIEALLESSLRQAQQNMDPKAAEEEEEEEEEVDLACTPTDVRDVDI
T1 sequence (P08069 999-1274 limits assumed): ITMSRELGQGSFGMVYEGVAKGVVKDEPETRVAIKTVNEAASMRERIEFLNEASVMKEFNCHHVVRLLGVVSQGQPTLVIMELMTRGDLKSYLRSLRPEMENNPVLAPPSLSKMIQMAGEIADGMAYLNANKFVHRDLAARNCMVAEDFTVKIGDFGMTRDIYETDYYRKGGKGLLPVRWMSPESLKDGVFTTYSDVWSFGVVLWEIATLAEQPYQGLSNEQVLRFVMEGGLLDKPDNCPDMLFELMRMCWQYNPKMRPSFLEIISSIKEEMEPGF
T4 sequence (P06493 whole entry): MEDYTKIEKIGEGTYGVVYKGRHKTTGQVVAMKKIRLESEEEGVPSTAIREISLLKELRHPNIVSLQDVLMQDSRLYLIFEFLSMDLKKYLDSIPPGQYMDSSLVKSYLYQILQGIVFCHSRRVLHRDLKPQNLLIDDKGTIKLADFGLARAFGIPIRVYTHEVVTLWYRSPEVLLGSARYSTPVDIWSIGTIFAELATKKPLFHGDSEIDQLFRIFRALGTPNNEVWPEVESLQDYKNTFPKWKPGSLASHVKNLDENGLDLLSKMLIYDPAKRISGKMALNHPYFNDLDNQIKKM
T4 sequence (P14635 whole entry partner): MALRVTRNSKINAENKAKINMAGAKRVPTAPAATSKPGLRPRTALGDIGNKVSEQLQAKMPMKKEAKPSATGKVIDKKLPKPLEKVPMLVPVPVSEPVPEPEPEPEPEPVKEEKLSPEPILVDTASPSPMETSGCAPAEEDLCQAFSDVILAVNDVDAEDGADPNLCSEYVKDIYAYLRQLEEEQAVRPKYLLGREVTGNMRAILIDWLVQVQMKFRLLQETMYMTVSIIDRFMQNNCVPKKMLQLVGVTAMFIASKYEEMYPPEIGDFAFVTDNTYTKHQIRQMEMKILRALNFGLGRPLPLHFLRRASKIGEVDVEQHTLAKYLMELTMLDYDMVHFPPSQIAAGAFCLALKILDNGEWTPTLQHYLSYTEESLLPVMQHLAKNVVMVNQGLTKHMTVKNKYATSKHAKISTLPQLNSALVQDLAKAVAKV

Compound: CC(=O)c1cccc(Nc2ccc3c(c2)/C(=C/Nc2ccc(CN4CCCCC4)cc2)C(=O)NC3=O)c1 [Example 885, (4Z)-6-[(3-acetylphenyl)amino]-4-({[4-(piperidin-1-ylmethyl)phenyl]amino}methylene)isoquinoline-1,3(2H,4H)-dione]
- IC50 (IGF1-receptor kinase): 0.36 µM

Compound: CC(=O)c1cccc(Nc2ccc3c(c2)/C(=C/Nc2ccc(N4CC(C)NC(C)C4)cc2)C(=O)NC3=O)c1 (centres unmarked) [Example 910, (4Z)-6-[(3-acetylphenyl)amino]-4-({[4-(3,5-dimethylpiperazin-1-yl)phenyl]amino}methylene)isoquinoline-1,3(2H,4H)-dione]
- IC50 (IGF1-receptor kinase): 0.54 µM

Compound: COc1cc(Nc2ccc3c(c2)/C(=C/Nc2ccc(CN4CCCCC4)cc2)C(=O)NC3=O)cc(C(F)(F)F)c1 [Example 900]
- Igfr % Inhibition at 10 uM (IGF1-receptor kinase; 10 uM compound): 20%

Compound: O=C1NC(=O)c2ccc(Nc3cccc(C(F)(F)F)c3)cc2/C1=C/Nc1ccc(CN2CCCCC2)cc1 [Example 886, (4Z)-4-({[4-(piperidin-1-ylmethyl)phenyl]amino}methylene)-6-{[3-(trifluoromethyl)phenyl]amino}isoquinoline-1,3(2H,4H)-dione]
- inhibition at 10 µM (IGF1-receptor kinase; 10 uM compound): 32%

Compound: CN(C)Cc1ccc(N/C=C2\C(=O)NC(=O)c3ccc(Nc4ccccc4)cc32)cc1 [Example 906, (4Z)-6-anilino-4-[({4-[(dimethylamino)methyl]phenyl}amino)methylene]isoquinoline-1,3(2H,4H)-dione]
- IC50 (IGF1-receptor kinase): 0.92 µM

Compound: CC(=O)c1cccc(Nc2ccc3c(c2)/C(=C/Nc2ccc(CN(C)C)cc2)C(=O)NC3=O)c1 [Example 909, (4Z)-6-[(3-acetylphenyl)amino]-4-[({4-[(dimethylamino)methyl]phenyl}amino)methylene]isoquinoline-1,3(2H,4H)-dione]
- IC50 (IGF1-receptor kinase): 0.887 µM

Compound: COc1ccc(Nc2ccc3c(c2)/C(=C/Nc2ccc(CN(C)C)cc2)C(=O)NC3=O)cc1 [Example 908, (4Z)-4-[({4-[(dimethylamino)methyl]phenyl}amino)methylene]-6-[(4-methoxyphenyl)amino]isoquinoline-1,3(2H,4H)-dione]
- IC50 (IGF1-receptor kinase): 0.566 µM

Compound: CCN(CC)Cc1ccc(N/C=C2\C(=O)NC(=O)c3ccc(Nc4ccc(C)cc4)cc32)cc1 [Example 911, (4Z)-4-[({4-[(diethylamino)methyl]phenyl}amino)methylene]-6-[(4-methylphenyl)amino]isoquinoline-1,3(2H,4H)-dione]
- IC50 (IGF1-receptor kinase): 1.16 µM

Compound: O=C1NC(=O)c2ccc(Nc3ccc4c(c3)OCO4)cc2/C1=C/Nc1ccc(CN2CCCCC2)cc1 [Example 896, (4Z)-6-(1,3-benzodioxol-5-ylamino)-4-({[4-(piperidin-1-ylmethyl)phenyl]amino}methylene)isoquinoline-1,3(2H,4H)-dione]
- IC50 (IGF1-receptor kinase): 0.83 µM

Compound: O=C1NC(=O)c2ccccc2/C1=C/Nc1ccc2ncccc2c1 [Example 8, (4Z)-4-[(Quinolin-6-ylamino)methylene]isoquinoline-1,3(2H,4H)-dione]
- IC50 (cyclin D1/cdk 4 enzyme): > 50 µM
- IC50 (MCF-7): > 50 µM
- IC50 (cyclin E/CDK2 enzyme): > 32 µM
- IC50 (cyclin B/CDK1 enzyme): > 32 µM
- IC50 (HCT-116): > 50 µM
- IC50 (BT474): > 50 µM
- melting point: 277 to 278 °C
- IC50 (SK-UT-1B): 8.9 µM
- IC50 (LoVo): > 50 µM

Compound: CN(C(=O)CN1CCCCC1)c1ccc(N/C=C2\C(=O)NC(=O)c3ccccc32)cc1 [Example 29, N-(4-{[(Z)-(1,3-Dioxo-2,3-dihydroisoquinolin-4(1H)-ylidene)methyl]amino}phenyl)-1,3(2H,4H)-dione N-Methyl-2-piperidin-1-ylacetamide]
- IC50 (cyclin D1/cdk 4 enzyme): 15 µM
- IC50 (MCF-7): 12 µM
- IC50 (cyclin E/CDK2 enzyme): > 23 µM
- IC50 (cyclin B/CDK1 enzyme): > 23 µM
- IC50 (HCT-116): 21 µM
- IC50 (BT474): 21 µM
- melting point: 223 to 224 °C
- IC50 (SK-UT-1B): 17 µM
- IC50 (LoVo): 19 µM

Continued, in another order:

- IC50 (IGF1-receptor kinase): 2.62 µM
Compound: O=C1NC(=O)c2ccc(Nc3cccc(Cl)c3)cc2/C1=C/Nc1ccc(CN2CCCCC2)cc1 [Example 905]

- IC50 (IGF1-receptor kinase): 6.03 µM
Compound: CC(=O)c1ccc(Nc2ccc3c(c2)/C(=C/Nc2ccc(CN4CCCCC4)cc2)C(=O)NC3=O)cc1 [Example 901, (4Z)-6-[(4-acetylphenyl)amino]-4-({[4-(piperidin-1-ylmethyl)phenyl]amino}methylene)isoquinoline-1,3(2H,4H)-dione]

- inhibition at 10 µM (IGF1-receptor kinase; 10 uM compound): 47%
Compound: O=C1NC(=O)c2ccc(Nc3ccc(Cl)cc3)cc2/C1=C/Nc1ccc(CN2CCCCC2)cc1 [Example 890, (4Z)-6-[(4-chlorophenyl)amino]-4-({[4-(piperidin-1-ylmethyl)phenyl]amino}methylene)isoquinoline-1,3(2H,4H)-dione]

- inhibition at 10 µM (IGF1-receptor kinase; 10 uM compound): 14%
Compound: CN(C)c1ccc(Nc2ccc3c(c2)/C(=C/Nc2ccc(CN4CCCCC4)cc2)C(=O)NC3=O)cc1 [Example 888, (4Z)-6-{[4-(dimethylamino)phenyl]amino}-4-({[4-(piperidin-1-ylmethyl)phenyl]amino}methylene)isoquinoline-1,3(2H,4H)-dione]

- IC50 (IGF1-receptor kinase): 1.7 µM
Compound: O=C1NC(=O)c2ccc(Nc3ccccc3Cl)cc2/C1=C/Nc1ccc(CN2CCCCC2)cc1 [Example 904, (4Z)-6-[(2-chlorophenyl)amino]-4-({[4-(piperidin-1-ylmethyl)phenyl]amino}methylene)isoquinoline-1,3-(2H,4H)-dione]

- IC50 (cyclin D1/cdk 4 enzyme): 1.1 µM
- IC50 (cyclin E/CDK2 enzyme): > 50 µM
- IC50 (cyclin B/CDK1 enzyme): > 50 µM
- melting point: 129 to 130 °C
- IC50 (SK-UT-1B): 11 µM
Compound: COC[C@H]1CCCN1Cc1ccc(N/C=C2\C(=O)NC(=O)c3ccc(Br)cc32)cc1 [Example 38]
- IC50 (MCF-7): 3.7 µM
- IC50 (HCT-116): 7.3 µM
- IC50 (BT474): 2.8 µM
- IC50 (LoVo): 7.9 µM

- IC50 (cyclin D1/cdk 4 enzyme): 38 µM
- IC50 (cyclin E/CDK2 enzyme): 18.9 µM
- IC50 (cyclin B/CDK1 enzyme): > 36 µM
- melting point: 150 to 151 °C
- IC50 (SK-UT-1B): > 36 µM
Compound: COc1ccc(N/C=C2\C(=O)NC(=O)c3ccccc32)cc1 [Example 1, (4Z)-4-{[(4-Methoxyphenyl)amino]methylene}isoquinoline-1,3(2H,4H)-dione]
- IC50 (MCF-7): 19 µM
- IC50 (HCT-116): 29 µM
- IC50 (BT474): 43 µM
- IC50 (LoVo): 30 µM

- IC50 (cyclin D1/cdk 4 enzyme): 1.1 µM
- IC50 (cyclin E/CDK2 enzyme): > 50 µM
- IC50 (cyclin B/CDK1 enzyme): > 50 µM
- melting point: 129 to 130 °C
- IC50 (SK-UT-1B): 10 µM
Compound: COCC1CCCN1Cc1ccc(N/C=C2\C(=O)NC(=O)c3ccc(Br)cc32)cc1 (stereo in doubt) [Example 39]
- IC50 (MCF-7): 6.3 µM
- IC50 (HCT-116): 7.5 µM
- IC50 (BT474): 7.9 µM
- IC50 (LoVo): 9.4 µM
